In patent US20160108027A1, “SUBSTITUTED BENZOXAZOLES” (BAYER PHARMA AKTIENGESELLSCHAFT, priority 2013, published 2016) one finds IC50 data, which are given here for 24 molecules.

For assay [1], the target named is T1, thrombin (Homo sapiens, UniProt P00734). Kind of assay: Determination of the thrombin-inhibitory activity in plasma samples (ecarin-activated). Type of assay: biochemical. Particulars: citrate plasma, ecarin activation, fluorogenic thrombin substrate; in some cases means of individual determinations. In short, it runs like this: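 Citrate plasma activated with ecarin (final 20 mU per reaction) in Ca buffer (Hepes, NaCl, CaCl2, PEG), with compound diluted from DMSO into water. Fluorogenic thrombin substrate at final 50 μmol/l; fluorescence (ex 360/em 465 nm) read each minute for 20 minutes, with buffer-only unstimulated control.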

Assay [2] deals with T1, thrombin. Kind of assay: Measurement of the thrombin inhibition in buffer. Type of assay: biochemical. The note with it: human thrombin 0.06 nmol/l in Tris buffer pH 7.4, 22° C., substrate Boc-Asp(OBzl)-Pro-Arg-AMC; in some cases means of individual determinations. Summed up:
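Compound pre-incubated 15 min at 22° C with 0.06 nmol/l human thrombin in 50 mmol/l Tris, 100 mmol/l NaCl, 0.1% BSA, pH 7.4, then 5 μmol/l Boc-Asp(OBzl)-Pro-Arg-AMC added for 30 min. AMC fluorescence read at 360/460 nm against DMSO controls; IC50 from concentration–activity curves.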

`COc1cc(C(=O)N2CC(C)CCC2CCO)cc2nc(NCc3cc(Cl)ccn3)oc12` (single isomer, unassigned) [Example 85, (2-{[(4-Chloropyridin-2-yl)methyl]amino}-7-methoxy-1,3-benzoxazol-5-yl) [2-(2-hydroxyethyl)-5-methylpiperidin-1-yl]methanone]: the figures for the IC50 in assay [1] and in assay [2] were 47 nM and 17 nM, respectively.

With `COc1cc(C(=O)N2CC(C)CCC2C2(O)CC2)cc2nc(NCc3cc(Cl)ccn3)oc12` (single isomer, unassigned) [Example 89, (2-{[(4-Chloropyridin-2-yl)methyl]amino}-7-methoxy-1,3-benzoxazol-5-yl) [2-(1-hydroxycyclopropyl)-5-methylpiperidin-1-yl]methanone], the IC50 in assay [1] came to 35 nM; in assay [2], 17 nM.

As for `COc1cc(C(=O)N2CC(C)CCC2C2(O)CC2)cc2nc(NCc3cc(Cl)ccn3)oc12` (single isomer, unassigned) [Example 90, (2-{[(4-Chloropyridin-2-yl)methyl]amino}-7-methoxy-1,3-benzoxazol-5-yl) [2-(1-hydroxycyclopropyl)-5-methylpiperidin-1-yl]methanone], the IC50 in assay [1] was found to be 94 nM; in assay [2] it was 28 nM.

With `COc1cc(C(=O)N2CC(C)CCC2C2(O)CC2)cc2nc(NCc3cc(Cl)ccn3)oc12` (single isomer, unassigned) [Example 91, (2-{[(4-Chloropyridin-2-yl)methyl]amino}-7-methoxy-1,3-benzoxazol-5-yl) [2-(1-hydroxycyclopropyl)-5-methylpiperidine-1-yl]methanone], the IC50 in assay [1] amounted to 24 nM; in assay [2] it was 13 nM.

With `COc1cc(C(=O)N2CC(C)NC(=O)C2CC#N)cc2nc(NCc3cc(Cl)ccn3)oc12` (single isomer, unassigned) [Example 92, {1-[(2-{[(4-Chloropyridin-2-yl)methyl]amino}-7-methoxy-1,3-benzoxazol-5-yl)carbonyl]-5-methyl-3-oxopiperazin-2-yl}acetonitrile], the figures for the IC50 in assay [1] and in assay [2] were 148 nM and 96 nM, respectively.

Regarding `COc1cc(C(=O)N2CC(C)(C)OCC2C(C)(C)O)cc2nc(NCc3cc(Cl)ccn3)oc12` (single isomer, unassigned) [Example 93, (2-{[(4-Chloropyridin-2-yl)methyl]amino}-7-methoxy-1,3-benzoxazol-5-yl) [5-(2-hydroxypropan-2-yl)-2,2-dimethylmorpholin-4-yl]methanone], the figures for the half-inhibitory concentration (IC50) in assay [1] and in assay [2] were 17 nM and 8.8 nM, respectively.

In the case of `COc1cc(C(=O)N2CC(C)(C)OCC2C2(O)CC2)cc2nc(NCc3cc(Cl)ccn3)oc12` (single isomer, unassigned) [Example 94, (2-{[(4-Chloropyridin-2-yl)methyl]amino}-7-methoxy-1,3-benzoxazol-5-yl) [5-(1-hydroxycyclopropyl)-2,2-dimethylmorpholin-4-yl]methanone], the figures for the IC50 in assay [1] and in assay [2] were 28 nM and 18 nM, respectively.

For the molecule `COc1cc(C(=O)N2CC(C)(C)OCC2C(C)O)cc2nc(NCc3cc(Cl)ccn3)oc12` (single isomer, unassigned) [Example 95, (2-{[(4-Chloropyridin-2-yl)methyl]amino}-7-methoxy-1,3-benzoxazol-5-yl) [5-(1-hydroxyethyl)-2,2-dimethylmorpholin-4-yl]methanone], the figures for the IC50 in assay [1] and in assay [2] were 13 nM and 6.8 nM, respectively.

Take `COc1cc(C(=O)N2CC(C)(C)OCC2C(C)O)cc2nc(NCc3cc(Cl)ccn3)oc12` (single isomer, unassigned) [Example 96, (2-{[(4-Chloropyridin-2-yl)methyl]amino}-7-methoxy-1,3-benzoxazol-5-yl) [5-(1-hydroxyethyl)-2,2-dimethylmorpholin-4-yl]methanone]: the IC50 in assay [1] came out at 43 nM; in assay [2], 41 nM.

Consider `CCO[C@@H]1CC(CO)N(C(=O)c2cc(OC)c3oc(NCc4cc(Cl)ccn4)nc3c2)C1` (stereo partly drawn) [Example 1, (2-{[(4-Chloropyridin-2-yl)methyl]amino}-7-methoxy-1,3-benzoxazol-5-yl)[(4R)-4-ethoxy-2-(hydroxymethyl)pyrrolidin-1-yl]methanone], for which the values for the IC50 in assay [1] and in assay [2] were 25 nM and 15 nM, respectively.

With `CCO[C@@H]1CC(CO)N(C(=O)c2cc(OC)c3oc(NC(C)c4cc(Cl)ccn4)nc3c2)C1` (stereo partly drawn) [Example 4, (2-{[1-(4-Chloropyridin-2-yl)ethyl]amino}-7-methoxy-1,3-benzoxazol-5-yl)[(4R)-4-ethoxy-2-(hydroxymethyl)pyrrolidin-1-yl]methanone], the IC50 in assay [1] turned out to be 66 nM; in assay [2], 39 nM.

On to `COc1cc(C(=O)N2C[C@H](OC3CC3)C[C@H]2C(=O)N2CC(F)(F)C2)cc2nc(NCc3cc(Cl)ccn3)oc12` [Example 10, (2-{[(4-Chloropyridin-2-yl)methyl]amino}-7-methoxy-1,3-benzoxazol-5-yl){(2S,4R)-4-(cyclopropyloxy)-2-[(3,3-difluoroazetidin-1-yl)carbonyl]pyrrolidin-1-yl}methanone], for which the IC50 in assay [1] came out at 39 nM; in assay [2], 31 nM.

As to `COc1cc(C(=O)N2C[C@H](OC3CC3)C[C@H]2C(=O)N2CC(F)C2)cc2nc(NCc3cc(Cl)ccn3)oc12` [Example 11, (2-{[(4-Chloropyridin-2-yl)methyl]amino}-7-methoxy-1,3-benzoxazol-5-yl){(2S,4R)-4-(cyclopropyloxy)-2-[(3-fluoroazetidin-1-yl)carbonyl]pyrrolidin-1-yl}methanone], the figures for the IC50 in assay [1] and in assay [2] were 101 nM and 31 nM, respectively.

Turning to `COc1cc(C(=O)N2C[C@H](OC3CC3)C[C@H]2CO)cc2nc(NCc3cc(Cl)ccn3)oc12` [Example 12, (2-{[(4-Chloropyridin-2-yl)methyl]amino}-7-methoxy-1,3-benzoxazol-5-yl)[(2S,4R)-4-(cyclopropyloxy)-2-(hydroxymethyl)pyrrolidin-1-yl]methanone], the values for the IC50 in assay [1] and in assay [2] were 8.9 nM and 4.4 nM, respectively.

Consider `COc1cc(C(=O)N2C[C@H](OC3CC3)C[C@H]2CO)cc2nc(NC(C)c3cc(Cl)ccn3)oc12` (stereo partly drawn) [Example 13, (2-{[1-(4-Chloropyridin-2-yl)ethyl]amino}-7-methoxy-1,3-benzoxazol-5-yl)[(2S,4R)-4-(cyclopropyloxy)-2-(hydroxymethyl)pyrrolidin-1-yl]methanone], for which the IC50 in assay [1] turned out to be 31 nM; in assay [2], 21 nM.

Turning to `COc1cc(C(=O)N2CC(C)(CCO)OCC2CF)cc2nc(NCc3cc(Cl)ccn3)oc12` (stereo not drawn) [Example 21, (2-{[(4-Chloropyridin-2-yl)methyl]amino}-7-methoxy-1,3-benzoxazol-5-yl) [5-(fluoromethyl)-2-(2-hydroxyethyl)-2-methylmorpholin-4-yl]methanone], the IC50 was 55 nM in assay [1] and 10 nM in assay [2].

In the case of `COc1cc(C(=O)N2CC(C)(CC(C)O)OC[C@H]2C)cc2nc(NC(C)c3cc(Cl)ccn3)oc12` (stereo partly drawn) [Example 26, (2-{[1-(4-Chloropyridin-2-yl)ethyl]amino}-7-methoxy-1,3-benzoxazol-5-yl)[(5R)-2-(2-hydroxypropyl)-2,5-dimethylmorpholin-4-yl]methanone], the results for the half-inhibitory concentration (IC50) in assay [1] and in assay [2] were 44 nM and 6.2 nM, respectively.

On to `CC[C@@H]1COC(C)(CCO)CN1C(=O)c1cc(OC)c2oc(NCc3cc(Cl)ccn3)nc2c1` (stereo partly drawn) [Example 28], for which the IC50 stood at 17 nM in assay [1] and 3.2 nM in assay [2].

As for `COCC1COC(C)(CCO)CN1C(=O)c1cc(OC)c2oc(NCc3cc(Cl)ccn3)nc2c1` (stereo not drawn) [Example 30], the IC50 stood at 65 nM in assay [1] and 25 nM in assay [2].

As to `COc1cc(C(=O)N2CC(C)OCC2C2CC(O)C2)cc2nc(NCc3cc(Cl)ccn3)oc12` (stereo not drawn) [Example 46, (2-{[(4-Chloropyridin-2-yl)methyl]amino}-7-methoxy-1,3-benzoxazol-5-yl) [5-(3-hydroxycyclobutyl)-2-methylmorpholin-4-yl]methanone], the IC50 in assay [1] came to 23 nM; in assay [2], 14 nM.

`COc1cc(C(=O)N2CC(C)(CCO)OCC2C(F)F)cc2nc(NCc3cc(Cl)ccn3)oc12` (stereo not drawn) [Example 54, (2-{[(4-Chloropyridin-2-yl)methyl]amino}-7-methoxy-1,3-benzoxazol-5-yl) [5-(difluormethyl)-2-(2-hydroxyethyl)-2-methylmorpholin-4-yl]methanone]: the values for the IC50 in assay [1] and in assay [2] were 35 nM and 11 nM, respectively.

Consider `COc1cc(C(=O)N2CC(C)(C)OC[C@H]2CCO)cc2nc(NCc3cc(Cl)ccn3)oc12` [Example 58, (2-{[(4-Chloropyridin-2-yl)methyl]amino}-7-methoxy-1,3-benzoxazol-5-yl)[(5R)-5-(2-hydroxyethyl)-2,2-dimethylmorpholin-4-yl]methanone], for which the figures for the IC50 in assay [1] and in assay [2] were 27 nM and 17 nM, respectively.

Regarding `COc1cc(C(=O)N2CC(C)(C)OC[C@H]2CCO)cc2nc(NC(C)c3cc(Cl)ccn3)oc12` (stereo partly drawn) [Example 59, (2-{[1-(4-Chloropyridin-2-yl)ethyl]amino}-7-methoxy-1,3-benzoxazol-5-yl)[(5R)-5-(2-hydroxyethyl)-2,2-dimethylmorpholin-4-yl]methanone], the IC50 in assay [1] was 90 nM; in assay [2], 60 nM.

On to `COc1cc(C(=O)N2CC(C)OC[C@@H]2[C@@H](C)O)cc2nc(NCc3cc(Cl)ccn3)oc12` (stereo partly drawn) [Example 68, (2-{[(4-Chloropyridin-2-yl)methyl]amino}-7-methoxy-1,3-benzoxazol-5-yl){(5R)-5-[(1R)-1-hydroxyethyl]-2-methylmorpholin-4-yl}methanone], for which the IC50 in assay [1] came to 72 nM; in assay [2] it was 59 nM.
